In ChEMBL document CHEMBL3124913, “Sinugyrosanolide A, an unprecedented C-4 norcembranoid, from the Formosan soft coral Sinularia gyrosa” (Bioorg Med Chem Lett, 2014):
The source made the active and inactive calls. The calls are words filed in the database; no cut-off is given here.

Assays:
[1] = test system: Human betaherpesvirus 5; test: Antiviral activity against Human cytomegalovirus infected in Human HEL cells assessed as virus-induced cytopathic effect treated 1 hr prior to infection measured after 7 days; type: functional, organism-based; settings: Human betaherpesvirus 5, HEL
[2] = test system: Shigella sonnei; test: Antibacterial activity against Shigella sonnei ATCC 11060 at 100 ug/ml after 24 hrs; type: functional, organism-based
[3] = test system: Klebsiella aerogenes; test: Antibacterial activity against Enterobacter aerogenes ATCC 13048 at 100 ug/ml after 24 hrs; type: functional, organism-based
[4] = test system: Yersinia enterocolitica; test: Antibacterial activity against Yersinia enterocolitica ATCC 23715 at 100 ug/ml after 24 hrs; type: functional, organism-based
[5] = test system: A549; test: Cytotoxicity against human A549 cells by MTT assay; type: functional, cell-based
[6] = test system: HT-29; test: Cytotoxicity against human HT-29 cells by MTT assay; type: functional, cell-based
[7] = test system: Salmonella enteritidis; test: Antibacterial activity against Salmonella enteritidis ATCC 13076 at 100 ug/ml after 24 hrs; type: functional, organism-based; settings: Salmonella enterica subsp. enterica serovar Enteritidis
[8] = test system: P388; test: Cytotoxicity against mouse P388 cells by MTT assay; type: functional, cell-based
[9] = test system: Serratia marcescens; test: Antibacterial activity against Serratia marcescens ATCC 25419 at 100 ug/ml after 24 hrs; type: functional, organism-based
[10] = test system: Human betaherpesvirus 5; test: Antiviral activity against Human cytomegalovirus infected in Human HEL cells assessed as virus-induced cytopathic effect at 1 ug/ml treated 1 hr prior to infection measured after 7 days; type: functional, organism-based

C=C(C)[C@@H]1CC(=O)C[C@H]2C(=O)[C@@H]3[C@@H]4C(=C[C@@H]12)C(=O)O[C@@H]4C[C@]3(C)O
EC50 [1]: > 50 µg/mL | Activity [2]: inactive | Activity [3]: inactive | Activity [4]: inactive | EC50 [5]: > 20000 nM | EC50 [6]: > 20000 nM | Activity [7]: inactive | EC50 [8]: 11800 nM | Activity [9]: inactive | Activity [10]: inactive

CO[C@H](C(=O)[C@@H](O)[C@@H](C)O)[C@@H]1Cc2cc3cc(O[C@H]4C[C@@H](O[C@@H]5C[C@@H](O)[C@H](O)[C@@H](C)O5)[C@H](O)[C@@H](C)O4)c(C)c(O)c3c(O)c2C(=O)[C@H]1O[C@H]1C[C@@H](O[C@@H]2C[C@@H](O)[C@@H](O[C@@H]3C[C@](C)(O)[C@H](O)[C@@H](C)O3)[C@@H](C)O2)[C@H](O)[C@@H](C)O1 [PLICAMYCIN]
EC50 [5]: 60 nM | EC50 [6]: 70 nM | EC50 [8]: 50 nM
